Laboratory results reported in patent publication US11542316B2, “S-Arrestin peptides and therapeutic uses thereof” (APITOPE INTERNATIONAL NV, priority 2017, dated 2023).
Ends that are not written are not given here.

What was measured:
Solubility of peptides = type: physicochemical
Description: The solubility of potential apitopes from S—Ag are determined by visual observations and turbidity measurement by UV spectrophotometry at 280 nm. The solubility of the peptides can be modified by adding amino acids ‘GKK’ or ‘KKK’ (or similar) on both the C- and N-terminus of the sequence. Modifications that may be suitable are described in WO2014/072958 (which is hereby incorporated by reference).
For some of these peptides, the parental peptides were insoluble, and solubility is a critical parameter for them to work as a tolerogenic peptide. Several end-terminal modifications can be used and as example used here they were improved by addition of 3 lysines before and after the original peptide sequence (labelled as ‘-KKK’ versions).

[1] = target: T1, MHC II molecules present on dendritic cells (DC) (Homo sapiens, UniProt P01903+P01911); test: In vivo presentation experiment, DR2tg mice; settings: 100 μg peptide s.c., CD11c+ cells harvested after 2 hours, co-culture 48 hours
T1 construct: from tissue; host or cells: CD11c+ dendritic cells from spleens of DR2tg mice (DRA*0101 and DRB1*1501 cDNAs under a mouse MHCII promoter, no mouse MHC class II)
Excerpt: FIG. 14: In vivo presentation protocol. Mice are immunized with peptide/CFA and a T cell line is established. For this, ten days after immunization the LN and spleens are harvested and cultured with different concentrations of peptide; 2×10^6 cells/ml APC+1×10^6 cells/ml CD4^+ cells per well. At day 7 the cells are re-stimulated with fresh APC and the same concentrations of peptide. After 14 to 21 days, CD4^+ cells are isolated from these cultures by magnetic bead isolation. These CD4^+ cells are co-cultured with CD11c^+ (dendritic) cells isolated by magnetic bead isolation from spleens of mice s.c. injected with peptide 2 hours before. Control mice receive a s.c. injection of PBS. After 48 hours, supernatant is collected and cytokine response (IFN-γ) is measured. […]
FIG. 17: In vivo presentation of HIP-9FL nested peptides in DR2 mice. […] After 48 hours, supernatant was collected and IFN-γ production was measured by ELISA. […]
DR3tg or DR2tg mice were injected with 100 μg of peptide in 100 μl PBS subcutaneously (s.c.) in the flank. […] After 48 hours, supernatant of these co-cultures was collected and CD4^+ T cell activation was analysed by IFN-γ ELISA (R&D Systems, Abingdon, UK). In a parallel experiment, CD4^+ T cell responses towards peptide added in vitro were assessed to make sure the T cells recognize the peptides presented by the CD11c^+ cells.

LN and spleen cells = test: Immunogenicity of HIP-115 in DR3 mice (IFN-γ ELISA on LN and spleen cultures); type: in vivo; settings: mice immunized with 50 μg HIP-115/CFA; LN and spleens cultured with 10 and 25 μg/ml HIP-115, 72 h
Description: FIG. 1: Immunogenicity of HIP-115 in DR3 mice. Mice were immunized with 50 μg HIP-115/CFA or PBS/CFA in the tail base. After 10 days, LN and spleens were harvested and cultured with 10 μg/ml and 25 μg/ml of HIP-115. Supernatants were collected after 72 h. Cell activation was measured by IFN-γ ELISA. (A) Immunogenicity in LN. (B) Immunogenicity in spleens. CFA, Complete Freund's Adjuvant; LN, lymph nodes.
Animal experiments were done to verify the predictions. Mice that were immunized with SAg (or fragments of it) were tested for their capacity to elicit an immune response when probed with the whole protein or parts of it. […] This response can be observed in secondary lymphoid organs, namely spleen (FIG. 1A) and lymph nodes (LN; FIG. 1B).

[2] = system: SAg-specific hybridoma cells / T cell line with VAVY APC; test: Antigen Processing Independent Presentation System (APIPS) assay, fresh or fixed VAVY APC; type: cell-based, DR3 mice; settings: DR3 hybridoma clone (IL-2, 48 h) or T cell line (IFN-γ, 24 h)
Description: (§1) FIG. 2: identification of apitopes within HIP-115. (A) DR3 mice were immunized with SAg and hybridomas were generated. 5×10^4 SAg-specific hybridoma cells were cultured with 5×10^4 fresh or fixed commercial APC (VAVY) cells. T cell proliferation was measured by IL-2 ELISA on supernatants collected after 48 h. The graph represents the mean of duplicate measurements±SEM. (B) DR3 mice were immunized with HIP-115 and a T cell line was established. Ten days after immunization the LN and spleens were harvested and cultured with different concentrations of peptide (0.1-1-2.5 and 5 μg/ml); 2×10^6 cells/ml APC+1×10^6 cells/ml CD4 T cells per well. At day 7 the cells were re-stimulated with the same concentrations of peptide. On day 14 an APIPS test was done using commercial APC (VAVY). After 24 h, antigen-induced T cell activation was measured by IFN-γ ELISA and shown as IFN-γ concentration (pg/ml). The graph represents the mean of duplicate measurements±SEM. LN, lymph nodes; APC, Antigen presenting cell; APIPS, Antigen Processing Independent Presentation System.
as §1, with “3:” for “2:”, “HIP-241125.” for “HIP-115.”, “HIP-241125+HIP-24DG” for “HIP-115”
(§2) FIG. 5: Identification of apitopes within HIP-17GN. DR3 mice were immunized with HIP-17GN and a T cell line was established. Ten days after immunization the LN and spleens were harvested and cultured with different concentrations of peptide (0.1-1-2.5 and 5 μg/ml); 2×10^6 cells/ml APC+1×10^6 cells/ml CD4 T cells per well. At day 7 the cells were re-stimulated with the same concentrations of peptide. On day 14 an APIPS test was done using commercial APC (VAVY). After 24 h, antigen-induced T cell activation was measured by IFN-γ ELISA and shown as OD values. The graph represents the mean of triplicate measurements±SEM. LN, lymph nodes; APC, Antigen presenting cell; APIPS, Antigen Processing Independent Presentation System.
as §2, with “6:” for “5:”, “HIP-12AK.” for “HIP-17GN.”, “HIP-12AK” for “HIP-17GN”, “IFN-γ concentration (pg/ml).” for “OD values.”, “duplicate” for “triplicate”
Antigen-specific clones or TCL were tested for their reactivity to the peptides, presented by fixed or not fixed (fresh) cells (VAVY or MGAR) (=APCs). 5×10^4 cells from the individual clones were cultured with 10 μg/ml peptide and 5×10^4 fixed or fresh APCs. […]

T1 sequence (P01903 26-254): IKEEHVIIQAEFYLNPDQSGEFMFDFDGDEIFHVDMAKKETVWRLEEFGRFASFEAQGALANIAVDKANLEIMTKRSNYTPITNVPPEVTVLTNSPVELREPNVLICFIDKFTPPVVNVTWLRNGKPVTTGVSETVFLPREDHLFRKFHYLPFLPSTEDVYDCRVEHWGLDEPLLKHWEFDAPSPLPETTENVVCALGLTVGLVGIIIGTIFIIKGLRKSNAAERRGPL
T1 sequence (P01911 30-266): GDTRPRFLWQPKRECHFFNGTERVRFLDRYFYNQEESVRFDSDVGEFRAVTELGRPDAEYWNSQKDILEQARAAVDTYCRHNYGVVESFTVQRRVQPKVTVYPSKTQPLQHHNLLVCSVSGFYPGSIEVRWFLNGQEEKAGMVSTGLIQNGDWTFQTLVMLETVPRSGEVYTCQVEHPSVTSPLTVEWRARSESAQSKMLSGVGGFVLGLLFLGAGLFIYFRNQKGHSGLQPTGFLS

AFVEQVANVVL-NH2 [HIP-9K1, AFVEQVANVVL]
solubility (Solubility of peptides): insoluble
picked up and presented by MHC II on dendritic cells to peptide-specific T cells (IFN-γ production) [1]: not able to cause this activation

MAASGKTSKSEPNHVIFKKISRDKSVTIYLGNRDYIDHVSQV-NH2 [HIP-115]
immune response against HIP-115 (IFN-γ ELISA) (LN and spleen cells): develop an immune response against it
behaves as apitope (response to peptide presented by fresh or fixed APC) [2]: behave as apitopes
